{"source": "paper PMC7738871", "about": "“Covalent modification of Keap1 at Cys77 and Cys434 by pubescenoside a suppresses oxidative stress-induced NLRP3 inflammasome activation in myocardial ischemia-reperfusion injury” (Theranostics, 2021)", "key": {"ROS in RAW264.7 cells": {"system": "ROS in RAW264.7 cells", "assay": "Intracellular ROS (DCFH-DA), LPS plus ATP macrophages", "format": "cell-based", "method": "The fluorescent probe DCFH-DA was used to measure intracellular ROS levels. RAW264.7 cells were treated with 100 μg/mL LPS plus ATP as mentioned above. H9c2 cells underwent OGD/R. After the appropriate treatment, the cells were incubated with DCFH-DA at a concentration of 10 μM for 30 min. The cells were washed with PBS three times. A fluorescence microscope and microplate reader were used to measure the level of DCFH-DA fluorescence at the excitation wavelength of 488 nm and the emission wavelength of 525 nm."}, "NLRP3 inflammasome": {"system": "NLRP3 inflammasome", "assay": "LPS plus ATP-induced NLRP3 inflammasome in RAW264.7", "format": "cell-based", "method": "Based on the previous study, RAW264.7 cells were treated with different concentrations of PBA 1 h before 200 ng/mL lipopolysaccharide (LPS) stimulation for 6 h. Then, 2 mM adenosine triphosphate (ATP) was added and incubated for 20 min at 37 °C with 5% CO2.\nTotal protein was isolated from H9c2 cells, primary mouse cardiomyocytes, RAW264.7 cells and heart tissue using 1X RIPA buffer containing phosphatase and proteinase inhibitors at 4 °C. After measurement of the concentration, the cell lysates were separated by sodium dodecyl sulphate polyacrylamide gel electrophoresis (SDS-PAGE) and transferred to polyvinylidene fluoride (PVDF) membranes. The membranes were blocked in Tris-buffered saline-Tween 20 (TBST) buffer with 5% BSA for 1 h and incubated with primary antibodies (1:1000 dilution) overnight at 4 °C. After the membranes was washed by TBST buffer for three times, they were incubated with horseradish peroxidase (HRP)-conjugated secondary mouse or rabbit antibodies (1:3,000 dilution) at room temperature (RT) for 1.5 h and then detected by SuperEnhanced chemiluminescence (ECL) reaction reagents (GBCBIO Technologies Inc., Guangzhou, Guangdong, China). […] After letting the membranes stand for 1-2 min, the bands of the respective proteins were detected with the exposure time of 10 ~60 s.\nAccording to previous experiences, Nrf2 nucleus translocation could be detected at 6 h. […]"}, "OGD/R-induced H9c2 cells": {"system": "OGD/R-induced H9c2 cells", "assay": "OGD/R-induced injury, MTT viability, H9c2", "format": "cell-based, rat", "conditions": "H9c2, 10 and 30 μM, OGD 6 h, reperfusion 18 h", "method": "For OGD/R treatment, H9c2 cells were washed twice with phosphate buffered saline (PBS). The medium was changed to glucose and serum free DMEM, and H9c2 cells were incubated in an incubator with 95% N2 and 5% CO2 at 37 °C. After 6 h, the medium was replaced with DMEM containing 10% FBS and 1% PS. Then H9c2 cells were returned to a normal incubator with 5% CO2 balanced with air at 37 °C for the indicated time.\n(§1) Cell viability was determined by MTT assays. PBA was prepared to a stock solution dissolved in dimethyl sulfoxide (DMSO). RAW264.7, H9c2 cells, primary mouse cardiomyocytes were treated with different doses of PBA, and DMSO only as control for 48 h for the toxicity. In addition, H9c2 cells or primary mouse cardiomyocytes were treated with the indicated doses of PBA, diazoxide as positive control, DMSO only as control, then cultured with or without OGD/R treatment. At the end of the experiments, MTT was added into each well at the concentration of 0.5 mg/ml, and incubated at 37 °C for 4 h. After removal of the supernatant, 150 μL of DMSO was added to solubilize the formazan products. And the solution was measured at the absorbance of 490 nm by a spectrophotometer (Thermo Fisher Scientific, MA, USA). The results of the MTT assay in all groups were normalized to the control group with DMSO only treatment."}, "Keap1 C226S": {"molecular_target": "T1, Keap1 C226S (Homo sapiens, UniProt Q14145, C226S)", "T1 construct": "His (N); made in house; host or cells: E. coli BL21 (DE3)", "T1 sequence (Q14145 whole entry C226S)": "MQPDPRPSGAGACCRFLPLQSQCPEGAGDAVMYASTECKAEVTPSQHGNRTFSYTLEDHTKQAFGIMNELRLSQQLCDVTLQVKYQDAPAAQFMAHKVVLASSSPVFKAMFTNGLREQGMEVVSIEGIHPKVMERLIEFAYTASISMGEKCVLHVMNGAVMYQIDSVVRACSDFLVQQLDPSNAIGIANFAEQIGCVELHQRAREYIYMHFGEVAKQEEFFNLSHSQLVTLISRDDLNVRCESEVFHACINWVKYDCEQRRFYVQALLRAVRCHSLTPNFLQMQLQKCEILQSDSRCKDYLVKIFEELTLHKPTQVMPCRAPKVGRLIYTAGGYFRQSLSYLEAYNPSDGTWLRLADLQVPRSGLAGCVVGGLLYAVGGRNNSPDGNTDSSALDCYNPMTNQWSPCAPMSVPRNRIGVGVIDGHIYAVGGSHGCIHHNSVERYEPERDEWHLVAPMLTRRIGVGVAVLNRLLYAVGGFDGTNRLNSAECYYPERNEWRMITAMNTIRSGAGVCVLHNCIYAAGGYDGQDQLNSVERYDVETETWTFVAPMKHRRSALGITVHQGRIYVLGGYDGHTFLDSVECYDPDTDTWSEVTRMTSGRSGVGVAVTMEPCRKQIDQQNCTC", "assay": "ITC titration of PBA with Keap1-C226S", "format": "binding", "conditions": "25 ℃", "method": "The Keap1 was amplified by PCR using a human cDNA library, and was subcloned into the vector pET28-TEV, which contained one tobacco etch virus (TEV) protease cleavage site at the upstream multiple cloning site. The protein was expressed in E. coli BL21 (DE3) cells and incubated at 37 °C until the OD600 value reached 0.6, using 0.2 mM isopropyl β-D-1-thiogalactopyranoside (IPTG) overnight induction at 18 °C. The cells were isolated by centrifugation, resuspended in ice-cold lysis buffer and lysed by cryogenic overpressure cell breaker at 1,200 psi. The lysates were centrifuged for 60 min at 14,000 rpm to obtain the supernatant. Gravity flow purification of Keap1 protein was obtained at room temperature using 1 mL of Ni-NTA and eluted in buffer containing 250 mM imidazole, followed by 1 mL of HiTrap QHP for the second step purification. The final protein was purified and validated by Superdex 200 10/300GL resin.\nThe mutant plasmid DNA was obtained by PCR. The PCR products were cleaved by DpnI restriction enzymes. The restriction endonuclease-cleaved mixture was subsequently transformed into E. coli DH5α. Colonies were evaluated by colony PCR and sequenced. The mutant plasmid was transformed into E. coli BL21 (DE3) after successful sequencing. The steps for expression and purification of all recombinants were described above.\nIsothermal calorimetry (ITC) titration experiments were performed at 25 °C. WT Keap1, Keap1 mutants and PBA were dissolved in binding buffer (40 mM Tris-HCl pH 8.0, 250 mM NaCl). In a typical experiment, 60 μL of PBA (1 mM) was injected 19 times at 2-min intervals from a stirring syringe into the sample cell containing 300 μL of WT protein or mutants (30 μM). The first injection was 0.4 μL of PBA, and the subsequent 18 injections were 2 μL each time. The site-binding models were determined by using MicroCal Origin software."}, "RAW264.7 macrophages": {"system": "RAW264.7 macrophages", "assay": "MTT cytotoxicity, RAW264.7", "format": "cell-based", "conditions": "RAW264.7, under 240 μM, 48 h", "method": "as §1"}}}
{"compound": "C=C(COC(=O)C=Cc1ccc(O)c(O)c1)C(O)COC1OC(CO)C(O)C(O)C1O", "note": "(stereo not drawn) [PBA, pubescenoside A]", "values": [{"measurement": "LPS plus ATP-induced ROS", "setting": "ROS in RAW264.7 cells", "value": "significantly suppress"}, {"measurement": "LPS/ATP-induced ACS and Caspase1 expression (immunofluorescent staining)", "setting": "NLRP3 inflammasome; RAW264.7, 30 μM", "value": "significantly reduced"}, {"measurement": "LPS/ATP-mediated NLPR3 induction, cleaved-caspase1 and IL-1β", "setting": "NLRP3 inflammasome; RAW264.7, PBA 1 h pretreatment, 200 ng/mL LPS 6 h, 2 mM ATP 20 min, western blot", "value": "attenuated"}, {"measurement": "protection against OGD/R induced injury (cell viability, MTT)", "setting": "OGD/R-induced H9c2 cells", "value": "protected"}, {"measurement": "Kd", "setting": "Keap1 C226S", "value": 8.12, "unit": "µM"}, {"measurement": "T△S", "setting": "Keap1 C226S", "value": "1.84 ± 0.00", "unit": "kcal/mol"}, {"measurement": "△G", "setting": "Keap1 C226S", "value": "-6.95 ± 0.00", "unit": "kcal/mol"}, {"measurement": "△H", "setting": "Keap1 C226S", "value": "-5.11 ± 0.279", "unit": "kcal/mol"}, {"measurement": "cell toxicity (MTT)", "setting": "RAW264.7 macrophages", "value": "did not exhibit any cell toxicity"}]}
